# Values joined by “and” are separate entries in the source; they are usually repeats but may differ in a detail not shown here. Equal entries are not always repeated.
# What was measured:
# Type in all cases: cell-based, human
# [1] = system: 22Rv1 cells; assay: Drug combination MTT assay, SynergyFinder ZIP analysis; conditions: 22Rv1, 48 h
# Procedure: (§1) Fig. 5 Effects of CuC1 in combination with taxanes and platinum agents. PC3-DR and 22Rv1 cells were co-treated with cisplatin (Cis), carboplatin (Carbo), docetaxel (Doce), or cabazitaxel (Caba) in combination with CuC1 at the indicated concentrations for 48 h. Cellular viability was evaluated using the MTT assay (number of biological replicates n = 3.) and is represented in the Supplementary Table S2. The cytotoxic effects were further analyzed, and 3D heat maps were constructed using SynergyFinder 3.0 software. The drug effects in combination (synergistic, additive, or antagonistic) were analyzed and visualized using the ZIP algorithm and are indicated by δ-score. δ > 10: Synergistic interactions (dark red area); […]: additive effect; δ < − 10: Antagonistic interactions (dark green area). A ZIP synergy score represents a mean δ overall the concentration range used.
# (§2) The effect of combinational treatment with established chemotherapies was evaluated as previously reported^54. In brief, cells were exposed to individual drugs of their combinations for 48 h, and the viability was measured by MTT assay and was then analyzed using SynergyFinder 3.0 software (https://synergyfinder.fimm.fi) and the ZIP score algorithm. Statistical analysis was conducted automatically by the software using its inbuilt algorythms based on the input data type and size.
# [2] = system: PC3-DR cells; assay: as above; conditions: 48 h
# Procedure: as §1, §2
# [3] = system: VCaP cells; assay: MTT cytotoxicity assay; conditions: 48 h, mean ± SD
# From the text: (§3) The cell lines were purchased from ATCC (Manassas, VA, USA) or ECACC (Salisbury, UK). The following cell lines were used: Human prostate cancer cells LNCaP (ATCC; RRID:CVCL_0395), VCaP (ECACC; RRID:CVCL_2235), 22Rv1 (ATCC; RRID:CVCL_1045), PC3 (ATCC; RRID:CVCL_0035), and DU145 (ATCC; RRID:CVCL_0105); human prostate non-cancer cells PNT2 (ATCC; RRID:CVCL_2164) and RWPE-01 (ATCC; RRID:CVCL_3791). Human non-cancer embryonic kidney cells HEK293T (ECACC; RRID:CVCL_0063) and human fibroblast cells MRC-9 (ECACC; RRID:CVCL_2629). The docetaxel-resistant cells PC3-DR were generated by long-term treatment of human prostate cancer PC3 cells with sublethal concentrations of docetaxel as previously described[32] and were provided by Prof. Z. Culig (Innsbruck Medical University, Austria). All cell lines were recently authenticated by a commercial service (Multiplexion GmbH, Heidelberg, Germany) and were cultured as previously described[58],[59]. Cells were kept in culture for a maximum of three months and were routinely examined for bacterial, fungal, and mycoplasma infections.
# [4] = system: LNCaP cells; assay: MTT cytotoxicity assay; conditions: 48 h, mean ± SD
# From the text: as §3
# [5] = system: RWPE-1 cells; assay: MTT cytotoxicity assay; conditions: RWPE-1, 48 h, mean ± SD
# From the text: as §3
# [6] = system: PC3 cells; assay: MTT cytotoxicity assay; conditions: PC3, 48 h, mean ± SD
# From the text: as §3
# [7] = system: MRC-9 cells; assay: MTT cytotoxicity assay; conditions: MRC-9, 48 h, mean ± SD
# From the text: as §3
# [8] = system: HEK293T cells; assay: MTT cytotoxicity assay; conditions: 48 h, mean ± SD
# From the text: as §3
# [9] = system: DU145 cells; assay: MTT cytotoxicity assay; conditions: DU145, 48 h, mean ± SD
# From the text: as §3
# [10] = system: 22Rv1 cells; assay: MTT cytotoxicity assay; conditions: 22Rv1, 48 h, mean ± SD
# From the text: as §3
# [11] = system: PNT2 cells; assay: MTT cytotoxicity assay; conditions: PNT2, 48 h, mean ± SD
# From the text: as §3
# [12] = system: PC3-DR cells; assay: MTT cytotoxicity assay; conditions: 48 h, mean ± SD
# From the text: as §3
# [13] = system: non-cancer PNT2, RWPE-1, HEK293T, MRC-9 cells vs cancer PC3, 22Rv1, DU145, VCaP, LNCaP cells; assay: Selectivity index from MTT IC50 values; conditions: [mean IC50 in non-cancer cells] / [mean IC50 in cancer cells]; Doce IC50 in PNT2 and MRC-9 assumed 500 nM
smiles,measurement,setting,value
"CO[C@H]1C(=O)[C@]2(C)[C@@H](OC)C[C@H]3OC[C@@]3(OC(C)=O)[C@H]2[C@H](OC(=O)c2ccccc2)[C@]2(O)C[C@H](OC(=O)[C@H](O)[C@@H](NC(=O)OC(C)(C)C)c3ccccc3)C(C)=C1C2(C)C [Caba, cabazitaxel]",Response (% of effect),[1]; Caba 0.25 nM alone,3.714%
same,Response (% of effect),[1]; Caba 0.5 nM alone,20.36% and 24.57%
same,Response (% of effect),[1]; Caba 1 nM alone,27.6928% and 30.03%
same,Response (% of effect),[1]; Caba 2 nM alone,32.86% and 33.2%
same,Response (% of effect),[2]; Caba 12.5 nM alone,26.4286% and 23.41%
same,Response (% of effect),[2]; Caba 25 nM alone,28.07% and 33.73%
same,Response (% of effect),[2]; Caba 50 nM alone,43.53% and 46.12%
same,Response (% of effect),[2]; Caba 100 nM alone,53.45% and 58.01%
"N.N.O=C([O-])C1(C(=O)[O-])CCC1.[Pt+2] [Carbo, carboplatin]",Response (% of effect),[1]; Carbo 12.5 μM alone,0.01% and 4.629%
same,Response (% of effect),[1]; Carbo 25 μM alone,11.3613% and 13.96%
same,Response (% of effect),[1]; Carbo 50 μM alone,22.27% and 31.0235%
same,Response (% of effect),[1]; Carbo 100 μM alone,32.94% and 38.66%
same,Response (% of effect),[2]; Carbo 6.25 μM alone,0.01% and 9.352%
same,Response (% of effect),[2]; Carbo 12.5 μM alone,6.12% and 8.386%
"N.N.[Cl][Pt][Cl] [Cis, cisplatin]",IC50,[3],5.02 ± 2.73 µM
same,IC50,[4],2.75 ± 0.39 µM
same,IC50,[5],9.02 ± 1.52 µM
same,IC50,[6],34.6 ± 6.62 µM
same,IC50,[7],6.75 ± 2.15 µM
same,IC50,[8],6.44 ± 0.65 µM
same,IC50,[9],1.32 ± 0.31 µM
same,IC50,[10],0.993 ± 0.2 µM
same,IC50,[11],9.41 ± 1.82 µM
same,IC50,[12],6.89 ± 2.29 µM
same,Response (% of effect),[1]; Cis 2.5 μM alone,17.58% and 11.05%
same,Response (% of effect),[1]; Cis 5 μM alone,26.89% and 27.91%
same,Response (% of effect),[1]; Cis 10 μM alone,40.95% and 37.6%
same,Response (% of effect),[2]; Cis 1.25 μM alone,12.8% and 15.79%
same,Response (% of effect),[2]; Cis 2.5 μM alone,18.7% and 21.63%
same,Response (% of effect),[2]; Cis 5 μM alone,29.8412% and 29.49%
same,Response (% of effect),[2]; Cis 10 μM alone,50.19% and 51.55%
same,Selectivity index (SI),[13],0.88
